Molecules are shown by their SMILES. Activity calls are given as the source filed them. How the calls were made is not given here.

The series deals with CCRIS mutagenicity, Ames/micronucleus/aberration tests. Briefly: CCRIS mutagenicity studies.
Setting [1] is: Test System: AMES SALMONELLA TYPHIMURIUM, Strain/Indicator: TA100, Metabolic Activation: NONE, Method: STANDARD PLATE.
Setting [2] is: Test System: AMES SALMONELLA TYPHIMURIUM, Strain/Indicator: TA100, Metabolic Activation: RAT, LIVER, S-9, AROCLOR 1254, Method: STANDARD PLATE.
[3] abbreviates: Test System: AMES SALMONELLA TYPHIMURIUM, Strain/Indicator: TA1535, Metabolic Activation: NONE, Method: STANDARD PLATE.
The mark [4] stands for this setting: Test System: AMES SALMONELLA TYPHIMURIUM, Strain/Indicator: TA1535, Metabolic Activation: RAT, LIVER, S-9, AROCLOR 1254, Method: STANDARD PLATE.
Setting [5] is: Test System: AMES SALMONELLA TYPHIMURIUM, Strain/Indicator: TA98, Metabolic Activation: NONE, Method: STANDARD PLATE.
The mark [6] stands for this setting: Test System: AMES SALMONELLA TYPHIMURIUM, Strain/Indicator: TA100, Metabolic Activation: NONE, Method: PREINCUBATION
The mark [7] stands for this setting: Test System: AMES SALMONELLA TYPHIMURIUM, Strain/Indicator: TA97, Metabolic Activation: NONE.
Where [8] appears, read: Test System: AMES SALMONELLA TYPHIMURIUM, Strain/Indicator: TA98, Metabolic Activation: NONE.
Setting [9] is: Test System: AMES SALMONELLA TYPHIMURIUM, Strain/Indicator: TA100, Metabolic Activation: NONE.
The mark [10] stands for this setting: Test System: AMES SALMONELLA TYPHIMURIUM, Strain/Indicator: TA102, Metabolic Activation: NONE.

For the compound `Oc1cccc2cc3cccc(O)c3c(O)c12`, the mutagenic call is, setting by setting: under setting [1], “inactive; negative”; under setting [2], “inactive; negative”; under setting [3], “inactive; negative”; under setting [4], “inactive; negative”; (Test System: E. COLI, Strain/Indicator: WP2 UVRA, Metabolic Activation: HAMSTER, LIVER, S-9, AROCLOR 1254, Method: STANDARD PLATE) “inactive; negative”; (Test System: E. COLI, Strain/Indicator: WP2 UVRA, Metabolic Activation: HAMSTER, LIVER, S-9, Method: STANDARD PLATE) “inactive; negative”. For the same compound, the mutagenic call is “inactive; negative” (Test System: E. COLI, Strain/Indicator: WP2 UVRA, Metabolic Activation: MOUSE, LIVER, S-9, AROCLOR 1254, Method: STANDARD PLATE); “inactive; negative” (Test System: E. COLI, Strain/Indicator: WP2 UVRA, Metabolic Activation: MOUSE, LIVER, S-9, Method: STANDARD PLATE); “inactive; negative” (Test System: E. COLI, Strain/Indicator: WP2 UVRA, Metabolic Activation: NONE, Method: STANDARD PLATE); “inactive; negative” (Test System: E. COLI, Strain/Indicator: WP2 UVRA, Metabolic Activation: RAT, LIVER, S-9, AROCLOR 1254, Method: STANDARD PLATE); “inactive; negative” (Test System: E. COLI, Strain/Indicator: WP2 UVRA, Metabolic Activation: RAT, LIVER, S-9, Method: STANDARD PLATE).

As to `O[C@@H]([C@H](O)[C@H](O)CBr)[C@H](O)CBr`, the mutagenic call by setting is: under setting [5], “inactive; negative”; under setting [1], “inactive; negative”; (Test System: AMES SALMONELLA TYPHIMURIUM, Strain/Indicator: TA100, Metabolic Activation: S-9, Method: STANDARD PLATE) “active; positive”; (Test System: E. COLI, Strain/Indicator: WP2 (HCR), Metabolic Activation: NONE, Method: STANDARD PLATE) “inactive; negative”; (Test System: E. COLI, Strain/Indicator: WP2 (HCR), Metabolic Activation: S-9, Method: STANDARD PLATE) “active; positive”.

As to `C=CC(=O)CC`, the mutagenic call was “active; positive” under setting [6] and “active; positive” (Test System: AMES SALMONELLA TYPHIMURIUM, Strain/Indicator: TA100, Metabolic Activation: RAT, LIVER, S-9, AROCLOR, Method: PREINCUBATION).

Turning to `Cc1cc2cccc3ccc4cc5ccccc5c1c4c32`, the mutagenic call (Test System: AMES SALMONELLA TYPHIMURIUM, Strain/Indicator: TA100, Metabolic Activation: RAT, INTACT HEPATOCYTES, AROCLOR 1254, Method: PREINCUBATION) was “active; positive” and the mutagenic call (Test System: AMES SALMONELLA TYPHIMURIUM, Strain/Indicator: TA100, Metabolic Activation: RAT, NADPH-FORTIFIED HOMOGENIZED HEPATOCYTES, AROCLOR 1254, Method: PREINCUBATION) was “active; positive”.

For `Nc1ccccc1[N+](=O)[O-]`, the mutagenic call is, setting by setting: (End Point: IN VITRO CHROMOSOMAL ABERRATIONS, Test System: CHL CELLS, Metabolic Activation: RAT, LIVER, S-9, SODIUM PHENOBARBITAL AND 5,6-BENZOFLAVONE) “active; positive (structural changes)”; (End Point: IN VITRO MICRONUCLEUS, Test System: CHL/IU CELLS, Metabolic Activation: NONE) “inactive; negative”; under setting [7], “inactive; negative”; (Test System: AMES SALMONELLA TYPHIMURIUM, Strain/Indicator: TA97, Metabolic Activation: RAT, LIVER, S-9, AROCLOR 1254) “inactive; negative”; (Test System: AMES SALMONELLA TYPHIMURIUM, Strain/Indicator: TA98, Metabolic Activation: HAMSTER, LIVER, S-9, AROCLOR 1254, FLAVIN MONONUCLEOTIDE, Method: PREINCUBATION) “active; positive”; (Test System: AMES SALMONELLA TYPHIMURIUM, Strain/Indicator: TA98, Metabolic Activation: HAMSTER, LIVER, S-9, AROCLOR 1254, Method: PREINCUBATION) “inactive; negative”. The mutagenic call runs as follows: under setting [8], “inactive; negative”; (Test System: AMES SALMONELLA TYPHIMURIUM, Strain/Indicator: TA98, Metabolic Activation: NONE, Method: PREINCUBATION) “inactive; negative”; under setting [5], “inactive; negative”; (Test System: AMES SALMONELLA TYPHIMURIUM, Strain/Indicator: TA98, Metabolic Activation: RAT, LIVER, S-9, AROCLOR 1254) “inactive; negative”; (Test System: AMES SALMONELLA TYPHIMURIUM, Strain/Indicator: TA98, Metabolic Activation: RAT, LIVER, S-9, AROCLOR 1254, FLAVIN MONONUCLEOTIDE, Method: PREINCUBATION) “inactive; negative”; (Test System: AMES SALMONELLA TYPHIMURIUM, Strain/Indicator: TA98, Metabolic Activation: RAT, LIVER, S-9, AROCLOR 1254, Method: STANDARD PLATE) “inactive; negative”. The mutagenic call is “inactive; negative” (Test System: AMES SALMONELLA TYPHIMURIUM, Strain/Indicator: TA98, Metabolic Activation: RAT, LIVER, S-9, KANECHLOR 500, Method: PREINCUBATION); “inactive; negative” (Test System: AMES SALMONELLA TYPHIMURIUM, Strain/Indicator: TA98, Method: PREINCUBATION); “inactive; negative” under setting [9]; “inactive; negative” under setting [6]; “inactive; negative” under setting [1]; “inactive; negative” (Test System: AMES SALMONELLA TYPHIMURIUM, Strain/Indicator: TA100, Metabolic Activation: RAT, LIVER, S-9, AROCLOR 1254). Besides, the mutagenic call was “inactive; negative” under setting [2]; “inactive; negative” (Test System: AMES SALMONELLA TYPHIMURIUM, Strain/Indicator: TA100, Metabolic Activation: RAT, LIVER, S-9, KANECHLOR 500, Method: PREINCUBATION); “inactive; negative” (Test System: AMES SALMONELLA TYPHIMURIUM, Strain/Indicator: TA100, Method: PREINCUBATION); “inactive; negative” under setting [10]; “inactive; negative” (Test System: AMES SALMONELLA TYPHIMURIUM, Strain/Indicator: TA102, Metabolic Activation: RAT, LIVER, S-9, AROCLOR 1254); “inactive; negative” (Test System: AMES SALMONELLA TYPHIMURIUM, Strain/Indicator: TA1535, Metabolic Activation: NONE, Method: PREINCUBATION). For the same compound, the mutagenic call is “inactive; negative” under setting [3]; “inactive; negative” under setting [4]; “inactive; negative” (Test System: AMES SALMONELLA TYPHIMURIUM, Strain/Indicator: TA1535, Method: PREINCUBATION); “inactive; negative” (Test System: AMES SALMONELLA TYPHIMURIUM, Strain/Indicator: TA1537, Metabolic Activation: NONE, Method: PREINCUBATION); “inactive; negative” (Test System: AMES SALMONELLA TYPHIMURIUM, Strain/Indicator: TA1537, Metabolic Activation: NONE, Method: STANDARD PLATE); “inactive; negative” (Test System: AMES SALMONELLA TYPHIMURIUM, Strain/Indicator: TA1537, Metabolic Activation: RAT, LIVER, S-9, AROCLOR 1254, Method: STANDARD PLATE). For the same compound, the mutagenic call was “inactive; negative” (Test System: AMES SALMONELLA TYPHIMURIUM, Strain/Indicator: TA1537, Method: PREINCUBATION); “inactive; negative” (Test System: AMES SALMONELLA TYPHIMURIUM, Strain/Indicator: TA1538, Metabolic Activation: NONE, Method: PREINCUBATION); “inactive; negative” (Test System: AMES SALMONELLA TYPHIMURIUM, Strain/Indicator: TA1538, Metabolic Activation: NONE, Method: STANDARD PLATE); “inactive; negative” (Test System: AMES SALMONELLA TYPHIMURIUM, Strain/Indicator: TA1538, Metabolic Activation: RAT, LIVER, S-9, AROCLOR 1254, Method: STANDARD PLATE); “inactive; negative” (Test System: AMES SALMONELLA TYPHIMURIUM, Strain/Indicator: TA1538, Method: PREINCUBATION); “inactive; negative” (Test System: UDS RODENT HEPATOCYTES, Strain/Indicator: THY INCORP (NON-S-PHASE), Metabolic Activation: NONE, Method: AUTORADIOGRAPHY).

On to `C/C=C(\Cl)C1=C(Cl)C(=O)[C@]23C[C@H]2C(C)(C)O[C@]3(O)C1=O`, for which the mutagenic call was “inactive; negative” under setting [7], “inactive; negative” under setting [8], “active; positive” under setting [9] and “active; positive” under setting [10].
